The record followed here is the OPERA property sets (Mansouri et al. 2018).

≈ marks a conversion by molar mass, not a printed value.

The conditions of one data set: 25 °C.
With `CCCCCCCCO`, the solubility – broadly, how much of the substance goes into solution per volume – was found to be 4.15 mM (≈ 540 µg/mL).
Still for that read-out and setting: to `CCC[C@](C)(O)CC` belongs 101 mM (≈ 11700 µg/mL); to `CC(C)CCC(C)O` (stereo not drawn), 41.9 mM (≈ 4870 µg/mL); to `CCCCCCCCCCO`, 0.234 mM (≈ 37 µg/mL).
The same measure, in the same setting: to `C=CC(O)C(C)C` (stereo not drawn) belongs 305 mM (≈ 30600 µg/mL).
Same read-out and setting: to `CC(C)(C)CCCO` belongs 28.5 mM (≈ 3310 µg/mL); to `CC=CC(O)CC` (stereo not drawn), 380 mM (≈ 38100 µg/mL); to `CCCC(O)CCC`, 40.4 mM (≈ 4700 µg/mL).
`CC(C)C(C)O` (stereo not drawn) showed a solubility of 635 mM (≈ 56000 µg/mL).
Compound `CC(C)CCCO` registered a solubility of 73.4 mM (≈ 7500 µg/mL).
Still for that read-out and setting: for `CCCCC(C)(C)O` the value was 83.5 mM (≈ 9700 µg/mL).

Still in this data set, the particulars now being: 28 °C.
For the compound `CCCCC(C)(O)CC` (stereo not drawn), the solubility came out at 23.2 mM (≈ 3020 µg/mL).

Still in this data set, the particulars now being: 30 °C.
`CCCCCC(C)(C)O` yielded a solubility of 19.1 mM (≈ 2490 µg/mL).
